Reference: ChEMBL document CHEMBL1201862, “PubChem BioAssay data set” (2004)
Calls of active or inactive are those of the source.

Tests used:
[1] = molecular target: T1, Beta-adrenergic receptor kinase 1 (Homo sapiens, UniProt P25098); assay: aptamer displacement from bead-bound GRK2 – biochemical, cherry pick 1, bead flow cytometry, dose response (AID 504500)
[2] = molecular target: T1, Beta-adrenergic receptor kinase 1; assay: Second cherry pick EC50 of compounds blocking aptamer binding to bead-bound GRK2 by flow cytometry, biochemical (AID 504815)
[3] = molecular target: T2, Carboxy-terminal domain RNA polymerase II polypeptide A small phosphatase 1 (Homo sapiens, UniProt Q9GZU7); assay: CTDSP1 inhibitors, concentration-response, biochemical, absorbance readout, ultra-high-throughput screen actives (AID 540297); type: functional
T2 sequence (Q9GZU7 whole entry): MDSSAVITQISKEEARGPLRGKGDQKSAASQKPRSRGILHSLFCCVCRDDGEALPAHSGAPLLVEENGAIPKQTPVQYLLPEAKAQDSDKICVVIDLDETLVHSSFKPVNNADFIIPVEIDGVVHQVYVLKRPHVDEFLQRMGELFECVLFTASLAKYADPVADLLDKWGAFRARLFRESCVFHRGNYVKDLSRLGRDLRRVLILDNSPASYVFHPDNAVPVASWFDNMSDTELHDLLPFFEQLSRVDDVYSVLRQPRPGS

HEK293 [4] = assay: SAR Analysis of small molecule inhibitors of T-cell specific antigen receptor-induced NF-kB activation in a HEK-293T cell line using a luminescence assay - Set 2. [Related pubchem assays (depositor defined):AID435003, AID435012, AID489026]; type: functional, cell-based; conditions: Homo sapiens
[5] = molecular target: Sphingosine 1-phosphate receptor 1 (Homo sapiens, UniProt P21453); type: functional;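 further: Tango beta-arrestin reporter U2OS cells stimulated with S1P near its EC80; inhibitor potency meaning antagonism of receptor activation by the natural agonist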
Paired box protein Pax-8 = Paired box protein Pax-8 (Homo sapiens, UniProt Q06710); assay: PAX8 transcriptional activity inhibition in RMG-I – RMG-I cells, luciferase, cherry-pick, dose response (AID 687027); type: functional, cell-based;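 further: luciferase reporter driven by Pax8 target thyroperoxidase promoter measured by SteadyGlo luminescence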
HEK293 [6] = assay: HEK293T cell viability loss, resazurin readout – resazurin fluorescence, cytotoxicity control for NF-kB activator project, SAR follow-up (AID 493251); type: functional, cell-based; conditions: Homo sapiens
[7] = NIH-3T3 fibroblast cytotoxicity, dose response, cytotoxicity control, cell-based, fluorescence, Alamar Blue, secondary assay (AID 2327); type: functional;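 further: NIH-3T3 mouse fibroblasts cultured with fluconazole at 8 µg/mL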
Steroidogenic factor 1 = Steroidogenic factor 1 (Homo sapiens, UniProt Q13285); assay: Counterscreen for inverse agonists of the liver receptor homolog-1 (LRH-1; NR5A2): Luminescence-based cell-based high throughput dose response assay to identify inverse agonists of the Steroidogenic Factor 1 Nuclear Receptor (SF1; NR5A1).; type: functional
[8] = molecular target: Nuclear receptor subfamily 5 group A member 2 (Homo sapiens, UniProt O00482); type: functional, cell-based;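 further: HEK293T cells transfected with LRH-1 and a StAR promoter luciferase reporter; potency for inhibitors that lower LRH-1 driven reporter light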
[9] = Counterscreen for activators of the function of SWI/SNF related, matrix associated, actin dependent regulator of chromatin, subfamily a, member 2 (SMARCA2, BRM): Luminescence-based cell-based high throughput dose response assay to identify non-selective compounds using the VP16 reporter assay.; type: functional
[10] = molecular target: T3, Microphthalmia-associated transcription factor (Homo sapiens, UniProt O75030); assay: reducers of TRPM1 reporter luminescence, concentration series – cell-based, SK-MEL-5, cherry-picked, set 3, MITF inhibitor project, dose response (AID 493073); type: functional;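 further: SK-MEL-5 melanoma cells with luciferase driven by the MITF target TRPM1 promoter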
T3 sequence (O75030 whole entry): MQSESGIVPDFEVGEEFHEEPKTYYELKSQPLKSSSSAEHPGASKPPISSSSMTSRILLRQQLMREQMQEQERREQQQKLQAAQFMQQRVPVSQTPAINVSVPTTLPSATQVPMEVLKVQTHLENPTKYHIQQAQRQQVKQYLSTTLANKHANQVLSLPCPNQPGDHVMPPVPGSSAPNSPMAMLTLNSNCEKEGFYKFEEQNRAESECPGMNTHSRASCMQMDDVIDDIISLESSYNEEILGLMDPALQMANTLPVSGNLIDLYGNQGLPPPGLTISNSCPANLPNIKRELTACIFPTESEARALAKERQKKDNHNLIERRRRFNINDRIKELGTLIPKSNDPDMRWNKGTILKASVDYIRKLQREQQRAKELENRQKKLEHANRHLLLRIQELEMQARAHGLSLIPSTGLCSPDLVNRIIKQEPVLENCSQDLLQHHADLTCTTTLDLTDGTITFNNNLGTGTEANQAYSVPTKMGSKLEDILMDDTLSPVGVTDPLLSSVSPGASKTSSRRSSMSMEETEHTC

[11] = nonselective StAR promoter luciferase inhibitors – cell-based, luminescence, luciferase reporter, counter-screen for LRH-1 inverse agonist project, dose response (AID 651969); type: functional
[12] = molecular target: T4, Sphingosine 1-phosphate receptor 4 (Homo sapiens, UniProt O95977); assay: Fluorescence dose response cell-based high throughput screening assay for antagonists of the Sphingosine 1-Phosphate Receptor 4 (S1P4). [Related pubchem assays: 1524 (Confirmation in triplicates.), 1510 (Primary screen.)]; type: functional
T4 sequence (O95977 whole entry): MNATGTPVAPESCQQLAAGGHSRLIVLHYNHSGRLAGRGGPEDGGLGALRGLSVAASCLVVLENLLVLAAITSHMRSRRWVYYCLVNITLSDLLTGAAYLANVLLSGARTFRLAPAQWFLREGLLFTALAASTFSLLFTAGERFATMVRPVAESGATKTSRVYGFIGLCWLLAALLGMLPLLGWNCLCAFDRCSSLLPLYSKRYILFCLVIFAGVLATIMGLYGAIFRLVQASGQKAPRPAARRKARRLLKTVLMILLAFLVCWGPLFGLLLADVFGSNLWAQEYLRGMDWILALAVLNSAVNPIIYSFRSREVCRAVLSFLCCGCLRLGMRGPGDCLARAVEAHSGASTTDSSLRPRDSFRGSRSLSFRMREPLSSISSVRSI

[13] = fluconazole-exposed Candida albicans growth modulators – fluorescence, retest, confirmation (AID 2467); type: functional, cell-based
Jurkat = assay: SAR Analysis of small molecule inhibitors of T-cell specific antigen receptor-induced NF-kB activation in a Jurkat cell line using a luminescence assay - Set 2. [Related pubchem assays (depositor defined):AID435003, AID435012, AID465]; type: functional, cell-based; conditions: Homo sapiens
[14] = molecular target: SWI/SNF-related matrix-associated actin-dependent regulator of chromatin subfamily A member 2 (Homo sapiens, UniProt P51531); assay: Luminescence-based cell-based high throughput dose response assay to identify activators of the function of SWI/SNF related, matrix associated, actin dependent regulator of chromatin, subfamily a, member 2 (SMARCA2, BRM).; type: functional
DNA topoisomerase = DNA topoisomerase (Yersinia pestis, UniProt A0A2S9PM60); assay: Yersinia topoisomerase I cleavage product accumulation – biochemical, cherry-pick, dose response (AID 588525)
[15] = molecular target: T5, Zinc finger protein mex-5 (Caenorhabditis elegans, UniProt Q9XUB2); assay: potency of MEX-5 RNA-binding blockers – biochemical, C. elegans, fluorescence polarization, dose response (AID 1960)
T5 sequence (Q9XUB2 whole entry): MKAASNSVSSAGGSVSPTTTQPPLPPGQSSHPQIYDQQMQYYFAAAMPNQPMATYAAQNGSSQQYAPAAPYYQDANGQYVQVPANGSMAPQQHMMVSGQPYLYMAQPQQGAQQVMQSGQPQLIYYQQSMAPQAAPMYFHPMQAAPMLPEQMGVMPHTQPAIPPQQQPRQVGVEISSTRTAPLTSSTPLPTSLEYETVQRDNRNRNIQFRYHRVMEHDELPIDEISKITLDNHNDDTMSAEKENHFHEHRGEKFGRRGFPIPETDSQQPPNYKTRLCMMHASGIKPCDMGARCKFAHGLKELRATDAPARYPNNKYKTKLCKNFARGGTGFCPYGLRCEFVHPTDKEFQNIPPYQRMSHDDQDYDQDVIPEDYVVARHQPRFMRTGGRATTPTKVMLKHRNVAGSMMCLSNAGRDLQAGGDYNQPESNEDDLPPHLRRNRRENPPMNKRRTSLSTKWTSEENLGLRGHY

Genome polyprotein = Genome polyprotein (dengue virus type 2, UniProt P29990); assay: flavivirus cap methylation enzyme inhibition – biochemical, confirmation dose response, primary screen (AID 588689); type: functional
[16] = molecular target: T6, RNA-binding protein pos-1 (Caenorhabditis elegans, UniProt G5EF15); assay: disruptors of C. elegans POS-1 RNA interaction – biochemical, fluorescence polarization, dose response (AID 1964);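 further: purified POS-1 fused to maltose binding protein made in E. coli; potency of compounds blocking POS-1 binding to fluorescent RNA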
T6 sequence (G5EF15 whole entry): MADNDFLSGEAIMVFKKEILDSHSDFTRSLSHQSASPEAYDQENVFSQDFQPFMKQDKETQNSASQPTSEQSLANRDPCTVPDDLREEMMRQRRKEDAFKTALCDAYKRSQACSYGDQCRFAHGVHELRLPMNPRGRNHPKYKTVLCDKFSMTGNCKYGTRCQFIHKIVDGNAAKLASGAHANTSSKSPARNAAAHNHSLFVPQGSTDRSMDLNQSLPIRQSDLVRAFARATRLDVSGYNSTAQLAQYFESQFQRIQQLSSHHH

Phospholipase A2 = Phospholipase A2 (Homo sapiens, UniProt P04054); type: functional;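 further: confirmatory dose-response counterscreen on phospholipase A2, testing hits that came from an ultra-high-throughput screen for ATG4B inhibitors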
Cysteine protease ATG4B = Cysteine protease ATG4B (Homo sapiens, UniProt Q9Y4P1); type: functional;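 further: Fluorescence-based dose-response confirmation assay measuring inhibition of ATG4B activity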
[17] = molecular target: T7, Short transient receptor potential channel 4 (Mus musculus, UniProt Q9QUQ5); assay: SAR Analysis for the identification of selective inhibits of the transient receptor potential cation channel C4 (TRPC4): Automated Electrophysiology. [Related pubchem assays (depositor defined):AID2256]; type: functional
T7 sequence (Q9QUQ5 whole entry): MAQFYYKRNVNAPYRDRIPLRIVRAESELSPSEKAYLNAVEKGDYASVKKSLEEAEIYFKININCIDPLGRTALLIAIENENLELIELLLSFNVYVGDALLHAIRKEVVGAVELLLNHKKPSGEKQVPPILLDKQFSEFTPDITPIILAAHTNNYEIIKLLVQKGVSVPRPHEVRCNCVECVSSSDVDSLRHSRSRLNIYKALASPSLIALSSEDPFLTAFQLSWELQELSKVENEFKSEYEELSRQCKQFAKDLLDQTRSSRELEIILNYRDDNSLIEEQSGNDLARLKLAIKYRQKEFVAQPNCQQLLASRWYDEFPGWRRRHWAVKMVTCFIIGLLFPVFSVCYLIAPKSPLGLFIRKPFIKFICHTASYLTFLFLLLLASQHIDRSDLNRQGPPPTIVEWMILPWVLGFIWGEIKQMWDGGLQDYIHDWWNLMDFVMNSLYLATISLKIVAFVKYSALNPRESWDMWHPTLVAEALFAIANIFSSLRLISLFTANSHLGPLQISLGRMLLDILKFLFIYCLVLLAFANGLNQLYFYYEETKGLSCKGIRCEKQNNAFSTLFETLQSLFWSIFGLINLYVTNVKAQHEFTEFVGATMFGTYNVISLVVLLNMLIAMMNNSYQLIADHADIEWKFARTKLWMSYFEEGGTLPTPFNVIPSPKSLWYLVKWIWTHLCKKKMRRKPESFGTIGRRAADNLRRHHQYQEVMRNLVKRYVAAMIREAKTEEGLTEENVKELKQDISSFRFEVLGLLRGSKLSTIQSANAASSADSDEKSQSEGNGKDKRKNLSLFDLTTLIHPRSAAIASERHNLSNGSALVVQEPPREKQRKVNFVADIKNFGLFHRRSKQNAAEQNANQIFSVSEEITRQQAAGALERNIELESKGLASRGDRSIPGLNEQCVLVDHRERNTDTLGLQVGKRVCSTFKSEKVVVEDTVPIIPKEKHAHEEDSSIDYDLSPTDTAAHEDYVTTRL

[18] = molecular target: Short transient receptor potential channel 6 (Mus musculus, UniProt Q61143); assay: mouse TRPC6 channel blockers, concentration series – HEK293 cells, membrane potential dye, IC50, selectivity assay for selective TRPC4 inhibitor project, dose response (AID 492987); type: functional, cell-based
[19] = molecular target: T7, Short transient receptor potential channel 4; assay: mouse TRPC4 block via Gq-coupled stimulation – cell-based, acetylcholine stimulus, HEK293 TRPC4, Fluo-4, SAR follow-up (AID 492996); type: functional
[20] = molecular target: T7, Short transient receptor potential channel 4; assay: potency of mouse TRPC4 calcium flux blockers – cell-based, HEK293 TRPC4/mu-opioid, DAMGO stimulus, Fluo-4, dose response (AID 492994); type: functional

T1 sequence (P25098 whole entry): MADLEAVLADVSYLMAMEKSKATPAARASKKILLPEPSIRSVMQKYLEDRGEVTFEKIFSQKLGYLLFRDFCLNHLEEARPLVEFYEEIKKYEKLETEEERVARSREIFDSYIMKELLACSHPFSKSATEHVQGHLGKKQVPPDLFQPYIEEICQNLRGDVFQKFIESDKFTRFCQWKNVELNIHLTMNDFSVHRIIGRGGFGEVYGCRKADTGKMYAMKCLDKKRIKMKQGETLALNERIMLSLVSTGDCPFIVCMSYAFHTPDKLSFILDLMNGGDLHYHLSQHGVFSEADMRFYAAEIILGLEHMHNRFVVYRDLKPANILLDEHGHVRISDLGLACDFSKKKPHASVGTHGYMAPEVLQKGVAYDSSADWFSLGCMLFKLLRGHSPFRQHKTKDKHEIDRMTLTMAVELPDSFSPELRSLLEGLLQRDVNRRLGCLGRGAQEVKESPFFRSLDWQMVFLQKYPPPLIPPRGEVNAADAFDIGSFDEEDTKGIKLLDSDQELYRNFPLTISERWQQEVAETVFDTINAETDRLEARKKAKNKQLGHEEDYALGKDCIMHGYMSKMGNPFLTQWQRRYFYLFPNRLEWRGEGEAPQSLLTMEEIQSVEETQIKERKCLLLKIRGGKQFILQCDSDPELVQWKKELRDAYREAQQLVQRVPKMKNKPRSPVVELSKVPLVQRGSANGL
Chain of DNA topoisomerase (A0A2S9PM60 whole entry): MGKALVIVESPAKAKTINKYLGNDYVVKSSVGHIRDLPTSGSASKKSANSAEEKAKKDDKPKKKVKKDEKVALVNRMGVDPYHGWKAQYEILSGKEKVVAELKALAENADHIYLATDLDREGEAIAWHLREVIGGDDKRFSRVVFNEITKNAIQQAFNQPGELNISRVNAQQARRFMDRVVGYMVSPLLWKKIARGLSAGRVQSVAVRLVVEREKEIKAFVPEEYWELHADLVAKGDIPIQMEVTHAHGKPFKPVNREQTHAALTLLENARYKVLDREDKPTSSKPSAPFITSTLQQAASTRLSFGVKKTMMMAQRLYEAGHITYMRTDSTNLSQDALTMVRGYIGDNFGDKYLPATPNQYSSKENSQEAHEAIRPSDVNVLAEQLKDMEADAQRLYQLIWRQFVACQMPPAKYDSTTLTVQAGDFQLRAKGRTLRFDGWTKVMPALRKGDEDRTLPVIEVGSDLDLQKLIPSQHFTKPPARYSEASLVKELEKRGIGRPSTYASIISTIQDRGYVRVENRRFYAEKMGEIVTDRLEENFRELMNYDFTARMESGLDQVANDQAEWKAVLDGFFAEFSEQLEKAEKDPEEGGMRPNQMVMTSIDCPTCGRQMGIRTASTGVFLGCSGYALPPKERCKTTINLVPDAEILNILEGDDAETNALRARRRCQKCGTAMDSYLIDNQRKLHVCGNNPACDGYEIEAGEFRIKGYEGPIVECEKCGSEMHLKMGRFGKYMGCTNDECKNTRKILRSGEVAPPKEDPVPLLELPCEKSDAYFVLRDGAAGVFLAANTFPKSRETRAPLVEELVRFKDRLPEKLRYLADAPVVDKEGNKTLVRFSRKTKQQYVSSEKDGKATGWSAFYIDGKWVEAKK
Chain of SWI/SNF-related matrix-associated actin-dependent regulator of chromatin subfamily A member 2 (P51531 whole entry): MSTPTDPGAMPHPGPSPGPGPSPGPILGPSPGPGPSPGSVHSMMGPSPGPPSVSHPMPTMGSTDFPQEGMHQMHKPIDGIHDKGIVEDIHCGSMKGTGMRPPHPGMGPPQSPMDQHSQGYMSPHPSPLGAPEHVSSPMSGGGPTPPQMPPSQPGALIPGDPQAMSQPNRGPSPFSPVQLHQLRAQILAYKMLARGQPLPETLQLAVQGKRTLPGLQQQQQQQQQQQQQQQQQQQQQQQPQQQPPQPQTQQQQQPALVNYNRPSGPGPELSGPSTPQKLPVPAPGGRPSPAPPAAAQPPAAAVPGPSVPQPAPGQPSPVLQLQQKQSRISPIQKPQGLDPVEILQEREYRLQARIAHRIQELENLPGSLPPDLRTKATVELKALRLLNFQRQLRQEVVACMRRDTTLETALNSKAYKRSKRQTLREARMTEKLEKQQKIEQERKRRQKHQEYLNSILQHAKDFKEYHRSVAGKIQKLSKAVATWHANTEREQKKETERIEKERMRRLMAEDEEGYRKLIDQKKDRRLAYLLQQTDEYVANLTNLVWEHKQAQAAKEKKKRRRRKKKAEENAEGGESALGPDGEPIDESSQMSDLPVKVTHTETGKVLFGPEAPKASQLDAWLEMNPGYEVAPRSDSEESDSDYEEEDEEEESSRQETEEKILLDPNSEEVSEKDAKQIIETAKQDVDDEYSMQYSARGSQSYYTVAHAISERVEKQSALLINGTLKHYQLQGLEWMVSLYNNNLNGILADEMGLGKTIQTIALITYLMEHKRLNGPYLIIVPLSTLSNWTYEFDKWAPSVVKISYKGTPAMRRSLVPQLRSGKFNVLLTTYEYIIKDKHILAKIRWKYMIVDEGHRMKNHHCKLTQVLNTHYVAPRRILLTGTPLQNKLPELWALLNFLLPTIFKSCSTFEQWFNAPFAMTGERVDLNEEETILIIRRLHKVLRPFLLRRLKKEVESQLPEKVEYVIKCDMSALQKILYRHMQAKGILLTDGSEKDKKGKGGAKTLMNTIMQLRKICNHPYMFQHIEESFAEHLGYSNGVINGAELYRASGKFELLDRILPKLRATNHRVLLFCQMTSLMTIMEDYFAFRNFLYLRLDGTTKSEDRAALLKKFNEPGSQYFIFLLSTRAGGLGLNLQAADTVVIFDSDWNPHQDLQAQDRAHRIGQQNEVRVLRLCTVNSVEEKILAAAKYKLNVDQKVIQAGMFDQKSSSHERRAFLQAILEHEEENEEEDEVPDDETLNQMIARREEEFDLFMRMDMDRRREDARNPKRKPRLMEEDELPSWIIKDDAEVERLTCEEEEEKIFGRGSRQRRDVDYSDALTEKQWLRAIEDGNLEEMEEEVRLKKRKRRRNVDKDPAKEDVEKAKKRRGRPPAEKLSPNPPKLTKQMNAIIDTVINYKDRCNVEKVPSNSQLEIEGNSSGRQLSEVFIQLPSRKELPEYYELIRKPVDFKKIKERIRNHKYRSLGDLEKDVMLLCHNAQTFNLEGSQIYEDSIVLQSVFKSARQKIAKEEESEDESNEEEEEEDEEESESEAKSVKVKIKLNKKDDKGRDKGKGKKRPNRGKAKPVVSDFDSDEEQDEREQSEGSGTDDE
Chain of Genome polyprotein (P29990 2492-3391 limits assumed): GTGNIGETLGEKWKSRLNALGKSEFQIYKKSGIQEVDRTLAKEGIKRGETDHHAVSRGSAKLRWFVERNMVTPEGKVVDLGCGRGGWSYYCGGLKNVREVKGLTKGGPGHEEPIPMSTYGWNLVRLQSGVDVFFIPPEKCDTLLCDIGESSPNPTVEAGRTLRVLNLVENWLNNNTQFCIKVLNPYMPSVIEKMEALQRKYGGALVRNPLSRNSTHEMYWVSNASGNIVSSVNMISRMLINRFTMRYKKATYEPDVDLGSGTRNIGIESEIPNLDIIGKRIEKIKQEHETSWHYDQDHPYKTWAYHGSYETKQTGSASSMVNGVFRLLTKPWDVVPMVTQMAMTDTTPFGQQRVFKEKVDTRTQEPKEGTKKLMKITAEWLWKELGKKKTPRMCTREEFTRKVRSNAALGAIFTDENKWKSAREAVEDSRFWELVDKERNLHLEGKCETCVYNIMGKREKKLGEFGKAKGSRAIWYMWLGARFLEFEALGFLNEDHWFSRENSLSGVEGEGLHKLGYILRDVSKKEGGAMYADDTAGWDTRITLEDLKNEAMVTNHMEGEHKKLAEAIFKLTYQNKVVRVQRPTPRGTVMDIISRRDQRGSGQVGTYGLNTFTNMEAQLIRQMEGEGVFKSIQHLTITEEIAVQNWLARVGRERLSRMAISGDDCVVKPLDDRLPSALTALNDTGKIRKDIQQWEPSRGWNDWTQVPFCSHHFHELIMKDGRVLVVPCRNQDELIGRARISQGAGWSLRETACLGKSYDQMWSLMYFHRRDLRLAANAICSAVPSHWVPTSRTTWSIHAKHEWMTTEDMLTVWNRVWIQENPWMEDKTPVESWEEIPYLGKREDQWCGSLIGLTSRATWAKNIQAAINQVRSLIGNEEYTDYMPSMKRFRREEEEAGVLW
Chain of Sphingosine 1-phosphate receptor 1 (P21453 whole entry): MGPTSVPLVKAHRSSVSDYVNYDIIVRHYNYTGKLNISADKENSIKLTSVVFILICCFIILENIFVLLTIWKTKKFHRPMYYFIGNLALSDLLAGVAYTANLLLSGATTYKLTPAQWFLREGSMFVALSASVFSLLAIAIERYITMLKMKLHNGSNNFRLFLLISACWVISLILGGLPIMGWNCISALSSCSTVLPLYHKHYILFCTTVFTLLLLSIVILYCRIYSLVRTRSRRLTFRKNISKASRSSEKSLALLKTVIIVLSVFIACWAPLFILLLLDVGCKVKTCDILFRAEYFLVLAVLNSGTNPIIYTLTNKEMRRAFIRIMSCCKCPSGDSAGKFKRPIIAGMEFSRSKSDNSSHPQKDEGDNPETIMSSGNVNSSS
Chain of Steroidogenic factor 1 (Q13285 whole entry): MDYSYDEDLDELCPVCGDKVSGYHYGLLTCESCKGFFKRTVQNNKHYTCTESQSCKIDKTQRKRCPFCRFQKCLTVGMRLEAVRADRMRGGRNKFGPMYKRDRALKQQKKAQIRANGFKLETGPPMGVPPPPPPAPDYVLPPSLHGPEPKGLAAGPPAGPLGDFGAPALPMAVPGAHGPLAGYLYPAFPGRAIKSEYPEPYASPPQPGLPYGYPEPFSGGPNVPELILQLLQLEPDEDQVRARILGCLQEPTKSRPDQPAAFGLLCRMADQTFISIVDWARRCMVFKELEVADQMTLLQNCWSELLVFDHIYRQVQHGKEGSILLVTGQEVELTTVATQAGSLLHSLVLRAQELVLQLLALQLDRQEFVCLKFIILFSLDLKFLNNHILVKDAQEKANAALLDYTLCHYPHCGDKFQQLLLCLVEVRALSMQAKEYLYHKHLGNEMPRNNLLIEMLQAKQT
Chain of Phospholipase A2 (P04054 whole entry): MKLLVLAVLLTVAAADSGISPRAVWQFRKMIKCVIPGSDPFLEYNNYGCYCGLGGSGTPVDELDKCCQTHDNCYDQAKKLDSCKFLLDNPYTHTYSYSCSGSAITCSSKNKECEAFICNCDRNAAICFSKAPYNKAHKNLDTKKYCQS

## CCc1cccc(NC(=O)CCS(=O)(=O)c2ccc(Br)cc2)c1
[1]
  EC50: 58.3 µM (inactive)
[2]
  EC50: 6.25 µM (active)
[3]
  IC50: 6.99 µM (active)

## Cc1cc(NC(=O)c2ccc([N+](=O)[O-])o2)ccc1NC(=O)c1ccco1
HEK293 [4]
  IC50: 27 µM (inactive)
[5]
  IC50: 11.5 µM (not active)
Paired box protein Pax-8
  AC50: 5.2 µM (active)
HEK293 [6]
  IC50: 42.4 µM (inactive)
[7]
  EC50: 4.78 µM (inconclusive)
Steroidogenic factor 1
  IC50: 0.766 µM (active)
[8]
  IC50: 35.9 µM (inactive)
[9]
  EC50: > 91.2 µM (inactive)
[10]
  AC50: 7.8 µM (active)
[11]
  IC50: 35.9 µM (inactive)
[12]
  IC50: 1.87 µM (active)
[13]
  EC50: > 38 µM (not active)
Jurkat
  IC50: 31.1 µM (inactive)
[14]
  EC50: > 91.2 µM (inactive)

## C=CCOc1cccc(C2C(C(=O)c3cc4ccccc4o3)=C(O)C(=O)N2c2cc(C)on2)c1 (configuration not stated)
DNA topoisomerase
  AC50: 7.35 µM (active)
[15]
  EC50: 80.5 µM (active)
Genome polyprotein
  IC50: 48.6 µM (active)
[16]
  EC50: > 300 µM (not active)

## CCCCCCCCCCCCCCCCCCNc1ccn(C2OC(COP(=O)(O)OCC3OC(n4cc(F)c(=O)[nH]c4=O)CC3O)C(O)C2O)c(=O)n1 (configuration not stated)
Phospholipase A2
  IC50: 9.09 µM (active)
Cysteine protease ATG4B
  IC50: 10.8 µM (active)

## Cc1cc(N2CCC[C@@H]2C)nc2ccccc12
[17]
  IC50: 4.26 µM (active)
[18]
  IC50: 11.8 µM (active)
[19]
  IC50: 17.1 µM (active)
[20]
  IC50: 2.5 µM (active)
